Laboratory results: ChEMBL document CHEMBL1201862, “PubChem BioAssay data set” (2004)
Active and inactive are the calls of the source.

Columns and labels:
[1] = biological target: T1, Lysosomal acid glucosylceramidase (Homo sapiens, UniProt P04062); assay: Dose response cell-based high throughput screening assay to identify enhancers of beta-glucosidase activity. [Related pubchem assays: 784 ]; assay type: functional
T1 sequence (P04062 whole entry): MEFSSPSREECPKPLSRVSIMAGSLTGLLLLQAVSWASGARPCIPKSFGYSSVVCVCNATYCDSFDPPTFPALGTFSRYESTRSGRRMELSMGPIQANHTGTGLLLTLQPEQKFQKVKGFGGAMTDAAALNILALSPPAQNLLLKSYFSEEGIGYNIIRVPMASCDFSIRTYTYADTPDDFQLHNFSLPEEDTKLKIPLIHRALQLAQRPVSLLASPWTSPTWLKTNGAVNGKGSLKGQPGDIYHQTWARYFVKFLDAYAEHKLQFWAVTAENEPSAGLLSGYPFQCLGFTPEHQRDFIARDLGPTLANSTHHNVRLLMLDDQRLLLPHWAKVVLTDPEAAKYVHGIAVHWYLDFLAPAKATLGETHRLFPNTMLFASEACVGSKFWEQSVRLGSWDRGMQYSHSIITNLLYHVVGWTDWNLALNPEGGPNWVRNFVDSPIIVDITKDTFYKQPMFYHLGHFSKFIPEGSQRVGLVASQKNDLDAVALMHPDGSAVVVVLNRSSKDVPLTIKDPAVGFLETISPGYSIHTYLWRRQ

Cytochrome P450 3A4 = Cytochrome P450 3A4 (Homo sapiens, UniProt P08684);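 note: CYP3A4 tested as one member of a cytochrome P450 panel screen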
Cytochrome P450 2C9 = Cytochrome P450 2C9 (Homo sapiens, UniProt P11712)
[2] = biological target: Peroxisome proliferator-activated receptor gamma/Nuclear receptor coactivator 1 (Homo sapiens, UniProt P37231); assay type: functional;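 note: agonist potency as compounds enhance coactivator SRC-1 recruitment to PPARgamma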
[3] = biological target: Peroxisome proliferator-activated receptor gamma/Nuclear receptor coactivator 2 (Homo sapiens, UniProt P37231); assay type: functional;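 note: agonist potency for raising coactivator recruitment to the receptor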
[4] = biological target: Peroxisome proliferator-activated receptor gamma/Nuclear receptor coactivator 3 (Homo sapiens, UniProt P37231); assay type: functional;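 note: agonist potency for raising coactivator recruitment to the receptor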
fMet-Leu-Phe receptor = biological target: T2, fMet-Leu-Phe receptor (Homo sapiens, UniProt P21462); assay: formyl peptide receptor binders – dose response (AID 519); assay type: functional
T2 sequence (P21462 whole entry): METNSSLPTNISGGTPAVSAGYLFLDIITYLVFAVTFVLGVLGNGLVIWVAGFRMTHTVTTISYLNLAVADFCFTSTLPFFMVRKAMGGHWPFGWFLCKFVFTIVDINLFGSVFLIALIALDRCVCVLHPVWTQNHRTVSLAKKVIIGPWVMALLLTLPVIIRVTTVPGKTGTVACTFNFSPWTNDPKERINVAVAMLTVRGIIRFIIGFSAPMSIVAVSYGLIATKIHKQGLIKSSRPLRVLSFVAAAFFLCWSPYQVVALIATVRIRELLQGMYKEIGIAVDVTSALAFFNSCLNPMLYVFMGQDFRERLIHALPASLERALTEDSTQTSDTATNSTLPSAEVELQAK

Bcl-2-like protein 10 = biological target: T3, Bcl-2-like protein 10 (Homo sapiens, UniProt Q9HD36); assay: Bcl-B/TR3 peptide binding disruption – biochemical, fluorescence polarization, FITC-TR3 peptide, selectivity assay for Bfl-1 inhibitor project, primary screen (AID 748);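 note: fluorescence polarization from a fluorescein-labelled TR3 peptide binding purified Bcl-B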
T3 sequence (Q9HD36 whole entry): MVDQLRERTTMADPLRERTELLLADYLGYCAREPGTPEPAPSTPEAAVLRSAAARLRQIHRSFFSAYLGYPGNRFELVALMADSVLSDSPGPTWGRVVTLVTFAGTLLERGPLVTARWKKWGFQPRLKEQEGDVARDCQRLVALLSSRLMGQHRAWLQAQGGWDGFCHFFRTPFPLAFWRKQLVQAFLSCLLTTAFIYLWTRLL

[5] = viability of uninfected HEp-2 cells – cell-based, HTS, cytotoxicity control for RSV inhibitor project, dose response (AID 2410); assay type: functional; conditions: human respiratory syncytial virus
X-box-binding protein 1 = biological target: T4, X-box-binding protein 1 (Homo sapiens, UniProt P17861); assay type: functional, Cricetulus griseus;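 note: confirmatory dose-response counter-screen serving a CHOP assay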
T4 sequence (P17861 whole entry): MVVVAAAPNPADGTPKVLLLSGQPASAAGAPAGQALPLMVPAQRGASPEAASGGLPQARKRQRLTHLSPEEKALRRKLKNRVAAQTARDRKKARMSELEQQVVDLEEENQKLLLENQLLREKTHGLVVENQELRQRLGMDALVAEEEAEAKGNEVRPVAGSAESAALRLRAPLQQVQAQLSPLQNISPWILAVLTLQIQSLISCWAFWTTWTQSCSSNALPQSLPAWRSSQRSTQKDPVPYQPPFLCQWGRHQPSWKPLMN

[6] = Luminescence Cell-Based Dose Retest to Confirm Inhibitors of Cancer Stem Cells. [Related pubchem assays (depositor defined):AID2717, AID2721]; assay type: functional; conditions: Homo sapiens
Hexokinase = biological target: T5, Hexokinase (Trypanosoma brucei, UniProt Q38C41); assay: Confirmation assay for inhibitors of Trypanosoma brucei hexokinase 1-Analogue-first series. [Related pubchem assays (depositor defined):AID1430, AID1632, AID2516, AID2560, AID2579, AID2600, AID449725, AID492951]; assay type: functional
T5 sequence (Q38C41 whole entry): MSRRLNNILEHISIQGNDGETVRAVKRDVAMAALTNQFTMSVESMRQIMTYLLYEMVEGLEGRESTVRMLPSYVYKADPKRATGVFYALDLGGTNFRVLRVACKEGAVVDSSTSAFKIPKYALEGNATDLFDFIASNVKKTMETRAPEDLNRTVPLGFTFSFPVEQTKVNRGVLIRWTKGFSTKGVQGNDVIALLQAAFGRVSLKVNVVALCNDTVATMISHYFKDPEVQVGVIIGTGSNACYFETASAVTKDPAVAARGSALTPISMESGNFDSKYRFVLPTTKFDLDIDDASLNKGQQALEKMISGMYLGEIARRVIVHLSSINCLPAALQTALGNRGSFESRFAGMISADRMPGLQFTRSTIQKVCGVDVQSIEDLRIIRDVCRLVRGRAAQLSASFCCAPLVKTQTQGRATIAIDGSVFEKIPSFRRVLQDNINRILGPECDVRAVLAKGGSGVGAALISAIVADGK

[7] = A Cell Based Secondary Assay To Explore Cytotoxicity of Compounds that Sensitize Mycobacterium Tuberculosis to Beta-Lactam Antibiotics.; assay type: functional

Sequence of Peroxisome proliferator-activated receptor gamma/Nuclear receptor coactivator 3 (P37231 whole entry): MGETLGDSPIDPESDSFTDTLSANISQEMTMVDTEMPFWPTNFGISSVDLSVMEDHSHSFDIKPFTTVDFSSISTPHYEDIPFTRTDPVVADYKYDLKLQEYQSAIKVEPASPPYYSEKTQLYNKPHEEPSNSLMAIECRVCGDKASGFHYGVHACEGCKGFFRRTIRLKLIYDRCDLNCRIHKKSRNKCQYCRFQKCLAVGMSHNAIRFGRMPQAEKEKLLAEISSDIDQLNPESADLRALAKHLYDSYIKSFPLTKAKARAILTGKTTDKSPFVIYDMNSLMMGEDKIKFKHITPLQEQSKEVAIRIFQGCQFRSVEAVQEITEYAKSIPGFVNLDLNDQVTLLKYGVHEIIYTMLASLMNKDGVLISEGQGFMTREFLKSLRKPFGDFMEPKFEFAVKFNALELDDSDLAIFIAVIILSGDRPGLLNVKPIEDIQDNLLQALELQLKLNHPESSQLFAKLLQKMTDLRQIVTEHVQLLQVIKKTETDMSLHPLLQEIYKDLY
Sequence of Peroxisome proliferator-activated receptor gamma/Nuclear receptor coactivator 3 (Q9Y6Q9 whole entry, further chain): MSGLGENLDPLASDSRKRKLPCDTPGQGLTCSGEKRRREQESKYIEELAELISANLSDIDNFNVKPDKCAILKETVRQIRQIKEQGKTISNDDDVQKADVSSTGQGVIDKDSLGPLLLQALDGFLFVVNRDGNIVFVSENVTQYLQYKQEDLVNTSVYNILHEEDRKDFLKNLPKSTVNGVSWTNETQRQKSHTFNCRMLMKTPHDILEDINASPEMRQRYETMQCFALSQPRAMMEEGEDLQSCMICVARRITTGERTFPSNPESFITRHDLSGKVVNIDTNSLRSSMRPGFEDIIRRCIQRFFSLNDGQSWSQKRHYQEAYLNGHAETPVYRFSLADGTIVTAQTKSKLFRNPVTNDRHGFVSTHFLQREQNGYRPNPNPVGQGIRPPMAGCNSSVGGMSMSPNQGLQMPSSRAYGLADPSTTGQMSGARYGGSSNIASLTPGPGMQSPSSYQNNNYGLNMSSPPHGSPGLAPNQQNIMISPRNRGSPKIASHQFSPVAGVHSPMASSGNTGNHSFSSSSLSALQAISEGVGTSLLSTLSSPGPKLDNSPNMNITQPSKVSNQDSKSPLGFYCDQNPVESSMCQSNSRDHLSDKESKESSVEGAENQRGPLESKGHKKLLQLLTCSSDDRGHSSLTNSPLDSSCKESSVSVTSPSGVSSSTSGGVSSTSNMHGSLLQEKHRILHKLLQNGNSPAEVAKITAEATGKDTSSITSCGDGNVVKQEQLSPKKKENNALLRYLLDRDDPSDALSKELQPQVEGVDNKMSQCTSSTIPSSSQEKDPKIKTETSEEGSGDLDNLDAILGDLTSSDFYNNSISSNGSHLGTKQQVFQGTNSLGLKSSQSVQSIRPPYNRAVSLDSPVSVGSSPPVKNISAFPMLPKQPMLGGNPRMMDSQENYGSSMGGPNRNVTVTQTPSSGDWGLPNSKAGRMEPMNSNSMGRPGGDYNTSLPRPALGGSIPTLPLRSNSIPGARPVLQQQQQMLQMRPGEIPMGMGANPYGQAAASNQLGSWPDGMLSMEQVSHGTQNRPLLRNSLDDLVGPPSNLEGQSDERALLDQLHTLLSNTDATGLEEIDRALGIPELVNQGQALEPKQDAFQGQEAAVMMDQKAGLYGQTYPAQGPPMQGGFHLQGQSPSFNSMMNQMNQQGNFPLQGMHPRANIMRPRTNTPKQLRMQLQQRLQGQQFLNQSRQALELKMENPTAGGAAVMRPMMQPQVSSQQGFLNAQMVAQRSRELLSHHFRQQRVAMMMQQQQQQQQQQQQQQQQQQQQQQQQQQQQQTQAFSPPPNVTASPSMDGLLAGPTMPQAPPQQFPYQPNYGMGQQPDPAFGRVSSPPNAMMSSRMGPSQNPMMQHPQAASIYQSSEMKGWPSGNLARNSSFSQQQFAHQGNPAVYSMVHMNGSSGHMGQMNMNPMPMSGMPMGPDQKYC
Sequence of Peroxisome proliferator-activated receptor gamma/Nuclear receptor coactivator 1 (P37231 whole entry): as the sequence (P37231 whole entry) above
Sequence of Peroxisome proliferator-activated receptor gamma/Nuclear receptor coactivator 1 (Q15788 whole entry, further chain): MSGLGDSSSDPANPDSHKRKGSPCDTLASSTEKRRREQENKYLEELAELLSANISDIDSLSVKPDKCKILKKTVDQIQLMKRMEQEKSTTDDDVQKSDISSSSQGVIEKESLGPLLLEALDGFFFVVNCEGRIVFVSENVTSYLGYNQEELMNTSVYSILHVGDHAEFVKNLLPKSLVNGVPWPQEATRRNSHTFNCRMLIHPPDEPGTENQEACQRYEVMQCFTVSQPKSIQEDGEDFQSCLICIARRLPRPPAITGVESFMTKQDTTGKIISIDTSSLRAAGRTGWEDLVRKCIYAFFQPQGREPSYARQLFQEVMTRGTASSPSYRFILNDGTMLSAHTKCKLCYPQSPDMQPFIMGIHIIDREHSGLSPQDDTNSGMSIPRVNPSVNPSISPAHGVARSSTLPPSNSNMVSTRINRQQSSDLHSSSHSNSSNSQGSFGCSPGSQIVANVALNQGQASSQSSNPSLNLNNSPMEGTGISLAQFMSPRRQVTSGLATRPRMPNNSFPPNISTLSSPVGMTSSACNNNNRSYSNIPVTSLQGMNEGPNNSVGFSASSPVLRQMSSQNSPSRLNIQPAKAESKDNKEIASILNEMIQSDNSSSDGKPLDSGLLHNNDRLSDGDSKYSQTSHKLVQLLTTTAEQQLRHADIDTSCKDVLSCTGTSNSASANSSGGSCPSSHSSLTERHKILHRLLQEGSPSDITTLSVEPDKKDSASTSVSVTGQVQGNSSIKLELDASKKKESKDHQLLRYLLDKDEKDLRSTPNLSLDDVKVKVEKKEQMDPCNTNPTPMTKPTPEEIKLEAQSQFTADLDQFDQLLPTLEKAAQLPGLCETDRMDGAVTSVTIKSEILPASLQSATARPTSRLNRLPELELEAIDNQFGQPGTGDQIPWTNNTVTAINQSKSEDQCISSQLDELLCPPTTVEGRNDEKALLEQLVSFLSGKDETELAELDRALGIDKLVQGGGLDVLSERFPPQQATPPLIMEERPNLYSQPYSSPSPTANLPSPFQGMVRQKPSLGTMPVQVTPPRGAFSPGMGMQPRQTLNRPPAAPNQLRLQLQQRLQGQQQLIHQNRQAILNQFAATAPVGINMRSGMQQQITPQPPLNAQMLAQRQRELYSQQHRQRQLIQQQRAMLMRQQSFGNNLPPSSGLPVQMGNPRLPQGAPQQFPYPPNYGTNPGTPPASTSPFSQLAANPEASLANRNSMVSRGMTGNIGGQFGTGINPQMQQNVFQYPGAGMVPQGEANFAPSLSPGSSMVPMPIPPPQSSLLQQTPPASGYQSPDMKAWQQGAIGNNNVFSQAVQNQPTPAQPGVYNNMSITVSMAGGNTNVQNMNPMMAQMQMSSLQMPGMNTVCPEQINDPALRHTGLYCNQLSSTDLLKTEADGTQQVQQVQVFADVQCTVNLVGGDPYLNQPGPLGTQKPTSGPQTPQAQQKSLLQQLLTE
Sequence of Cytochrome P450 2C9 (P11712 whole entry): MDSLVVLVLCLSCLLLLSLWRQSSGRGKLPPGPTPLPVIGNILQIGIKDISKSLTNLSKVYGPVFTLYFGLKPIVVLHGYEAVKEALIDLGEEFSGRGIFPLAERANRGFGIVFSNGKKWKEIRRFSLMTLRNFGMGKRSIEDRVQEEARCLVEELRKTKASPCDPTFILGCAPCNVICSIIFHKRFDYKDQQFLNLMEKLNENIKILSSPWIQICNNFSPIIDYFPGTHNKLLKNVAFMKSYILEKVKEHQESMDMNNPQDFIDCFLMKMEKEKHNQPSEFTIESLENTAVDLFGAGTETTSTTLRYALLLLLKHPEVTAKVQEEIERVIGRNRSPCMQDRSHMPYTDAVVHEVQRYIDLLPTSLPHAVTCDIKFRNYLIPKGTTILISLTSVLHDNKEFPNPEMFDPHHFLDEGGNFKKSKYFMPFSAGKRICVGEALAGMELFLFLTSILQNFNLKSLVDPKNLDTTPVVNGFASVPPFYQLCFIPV
Sequence of Cytochrome P450 3A4 (P08684 whole entry): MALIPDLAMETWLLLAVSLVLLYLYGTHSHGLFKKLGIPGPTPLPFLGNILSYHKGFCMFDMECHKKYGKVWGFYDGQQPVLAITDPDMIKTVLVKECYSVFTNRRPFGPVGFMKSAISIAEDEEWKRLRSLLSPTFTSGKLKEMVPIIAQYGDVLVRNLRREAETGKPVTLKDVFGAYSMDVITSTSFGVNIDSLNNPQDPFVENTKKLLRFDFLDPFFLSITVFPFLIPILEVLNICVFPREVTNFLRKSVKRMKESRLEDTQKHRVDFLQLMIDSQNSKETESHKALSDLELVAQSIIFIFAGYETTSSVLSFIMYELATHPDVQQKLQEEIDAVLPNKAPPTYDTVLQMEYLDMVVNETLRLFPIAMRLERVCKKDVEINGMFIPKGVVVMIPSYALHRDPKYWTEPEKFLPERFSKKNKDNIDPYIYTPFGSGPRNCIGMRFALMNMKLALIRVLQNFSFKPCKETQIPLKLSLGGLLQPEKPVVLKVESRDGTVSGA

SMILES: O=C(CSc1nnc2c(n1)[nH]c1ccc(F)cc12)OCc1ccccc1
- EC50 [1]: > 50 µM (not active)
- AC50 (Cytochrome P450 3A4): 8.91 µM (inconclusive)
- AC50 (Cytochrome P450 2C9): 0.0708 µM (inconclusive)

SMILES: COCc1c(C(=O)OC)nnn1-c1ccccc1
- EC50 [2]: > 79.4 µM (not active)
- EC50 [3]: > 79.4 µM (not active)
- EC50 [4]: > 79.4 µM (not active)

SMILES: CNS(=O)(=O)c1ccc(OC)c(-c2nnc3c4ccccc4c(C)nn23)c1
- IC50 (cells): 26.5 µM (active)

SMILES: Cc1ccc(S(=O)(=O)Nc2cc(C(=O)O)ccc2N2CCCCC2)cc1
- EC50 [1]: > 50 µM (not active)

SMILES: Cc1ccc(C)c(C(=O)C2=C(O)C(=O)N(CCCn3ccnc3)C2c2ccncc2)c1 (stereo not drawn)
- EC50 [1]: > 50 µM (not active)
- Ki (fMet-Leu-Phe receptor): > 66.7 µM (inactive)

SMILES: O=C(Nc1cccnc1)c1ccc(S(=O)(=O)N2CCCCCC2)cc1
- IC50 (Bcl-2-like protein 10): > 100 µM (inactive)

SMILES: COC(=O)C1=C(c2ccc(F)cc2F)C[C@@H]2CC[C@H]1N2C(=O)N1CCC(C)CC1
- IC50 (cells): 41.2 µM (active)
- CC50 [5]: 34.2 µM (active)

SMILES: CNC(=O)NC(=O)C(C)OC(=O)c1oc2ccccc2c1CSc1ccc(Cl)cc1 (stereo not drawn)
- Absolute IC50 (XBP1) (X-box-binding protein 1): 10 µM
- AC50 [6]: 12.3 µM (active)

SMILES: O=C(Nc1cc(Cl)ccc1C(=O)O)c1ccc(OC(F)(F)F)cc1
- IC50 (Hexokinase): > 25 µM (inactive)

SMILES: O=c1c2c(Br)cccc2sn1-c1ccccc1
- IC50 (Hexokinase): 1.93 µM (active)

SMILES: Cc1ccnn1CC(=O)N/N=C/c1ccc([N+](=O)[O-])s1
- CC50 [7]: 36 µM (active)
